The text below walks through data of PMC9709641 (Frontiers in Plant Science, 2022).

Test [1] addresses α-glucosidase. Description: PNPG hydrolysis assay, absorbance at […] nm. The format is biochemical.
Test [2] deals with α-glucosidase. Kind of test: PNPG hydrolysis assay, absorbance at […] nm; maximum inhibition […] at […]. The format is biochemical.

Usually IC50 stands for the concentration needed to halve the response being measured. Lower therefore signals inhibition by little substance. `N#CC(O)c1ccc(O)cc1` (centres unmarked) [4-hydroxymandelonitrile]: on α-glucosidase [1], the IC50 came out at 15.8 µM. eleutheroside E: the IC50 on α-glucosidase [2] is 0.19 µM.
